Measurements taken from PubChem BioAssay (NCI).
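Five compound concentrations were applied to cells in 96-well plates for 48 hours; endpoints were derived by simple linear interpolation of the resulting dose-response curve. The concentration for full growth arrest is given as TGI.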

What was measured:
Experiment in all cases: NCI anticancer screen, dose series, 48 h
[1] = system: BT-549 breast
[2] = system: PC-3 prostate
[3] = system: HOP-62 NSCLC
[4] = system: MDA-MB-435
[5] = system: M14 melanoma
[6] = system: HCT-15 colon
[7] = system: SF-539 CNS
[8] = system: SK-MEL-5 melanoma
[9] = system: OVCAR-8 ovarian
[10] = system: HCT-116 colon

Structure (SMILES)	TGI [1] [µM]	TGI [2] [µM]	TGI [3] [µM]	TGI [4] [µM]	TGI [5] [µM]	TGI [6] [µM]	TGI [7] [µM]	TGI [8] [µM]	TGI [9] [µM]	TGI [10] [µM]
CCN(CC)c1ccc2cc(-c3nnc(-c4ccccc4O)o3)c(=O)oc2c1	24.4	22.4	18.5	32.7	24.3	29.4	22.4	25.2	11.9	21.9
O=C(NCCN1CCCCC1)c1ccc(I)cc1	> 100	> 100	> 100	> 100	> 100	> 100	> 100	> 100	> 100	> 100
Cc1ccc(N2CCN(CCC(=O)O)CC2)cc1	> 100	> 100	> 100	> 100	> 100	> 100	> 100	> 100	> 100	> 100
N#Cc1c(O)c(N=Nc2ccc(Cl)cc2)c(=O)n2c1[nH]c1ccccc12	> 100	> 100	65.3	> 100	> 100	> 100	> 100	> 100	> 100	> 100
C=C(C)C(O)C(O)C[C@@H](C)C1CC[C@]23C[C@]12CCC1[C@@]2(C)CCC(OC(C)=O)C(C)(C)C2CC(OC2OC(CO)C(O)C(O)C2O)[C@]13C (stereo not given in full)	27.6	34.7	31.9	31.7	28.4	> 100	27.8	33.1	37.1	29.5
NC(=O)/C=c1/c2ccccc2n2nc3ccccc3c12	95.9	> 100	77.2	35.1	71.7	40.8	31.9	> 100	27.4	21
CN(C)C=NCCN1CCOCC1	> 100	> 100	> 100	> 100	> 100	> 100	> 100	> 100	> 100	> 100
C=C1C(=O)OC2CC(=C)C3CC=C(C)C3CC12 (stereo not given)	59.7	28.4	> 100	32.6	40.9	36.7	> 100	> 100	> 100	50.4
O=C(CCCl)NNC1=NCCCCN1	> 100	> 100	> 100	> 100	> 100	> 100	> 100	> 100	> 100	> 100
COC(=O)c1c[nH]c2c1-c1cc(C(=O)OCc3ccccc3)n(S(=O)(=O)c3ccc(C)cc3)c1C(=O)C2=O	0.342	1.19	1.06	0.135	0.289	0.438	0.471	0.262	0.927	0.607
O=C1N[C@@H]2c3c(Br)sc(Br)c3C(=O)[C@@H]2O1	24.1	18.7	42.7	6.33	3.81	4.05	24.1	18.4	4.52	2.78
CC(C)C(C/C=C1/CC(CO)(COC(=O)c2ccccc2)OC1=O)C(C)C (stereo not given)	33.2	28.1	22.4	95.5	32.2	36.9	16.1	21.3	48.5	29.7
COc1cc(S(=O)(=O)Nc2ccc(-c3csc(N4C(=O)C(Cl)C4c4ccccc4)n3)cc2)ccc1Cl (stereo not given)	83.2	> 100	> 100	> 100	59.2	> 100	> 100	88.1	39.9	> 100
O=C(O)CNn1c(SCC(=O)O)nnc(/C=C/c2c(O)ccc3ccccc23)c1=O	63.8	> 100	> 100	> 100	43.5	> 100	> 100	42.8	28.6	> 100
COC(=O)C1=CN(C2CCCCC2)C2(c3ccccc3)c3ccccc3C(=O)OC(=O)C12 (stereo not given)	> 100	> 100	> 100	> 100	> 100	> 100	> 100	> 100	> 100	> 100
O=C(NC(Nc1ccc(F)cc1)(C(F)(F)F)C(F)(F)F)C(C(F)(F)F)C(F)(F)F	> 100	> 100	> 100	> 100	> 100	> 100	> 85.9	> 100	> 100	> 100
CC(C)(C)OC(=O)c1ccc(NCC2=CC(=O)C=CC2=O)cc1	29.5	24.4	> 61.8	25.9	17.6	20.5	12.7	29	26.9	26.2
